Reference: patent US6022497A, “Photochromic six-membered heterocyclic-fused naphthopyrans” (PPG Industries Ohio, Inc., priority 1999, dated 2000)

Experiments:
Assay type in all cases: physicochemical
[1] = lambda max (Vis) of photochromic test square polymerizates, UV-Visible spectrophotometer; details: activated (colored) form in polymer test square (BPA 2EO DMA / poly(ethylene glycol) 600 dimethacrylate), 1.5×10^-3 molal
Procedure: (§1) Testing was done with the photochromic compounds prepared in Examples 1-14 in the following manner. A quantity of each photochromic compound, except Compounds 13A and 14, calculated to yield a 1.5×10^-3 molal solution was added to a flask containing 50 grams of a monomer blend of 4 parts ethoxylated bisphenol A dimethacrylate (BPA 2EO DMA), 1 part poly(ethylene glycol) 600 dimethacrylate, and 0.033 weight percent 2,2'-azobis(2-methyl propionitrile) (AIBN). Each photochromic compound was dissolved into the monomer blend by stirring and gentle heating. After a clear solution was obtained, it was poured into a flat sheet mold having the interior dimensions of 2.2 mm×6 inches (15.24 cm)×6 inches (15.24 cm). The mold was sealed and placed in a horizontal air flow, programmable oven programmed to increase the temperature from 40° C. to 95° C. over a 5 hour interval, hold the temperature at 95° C. for 3 hours, lower it to 60° C. over a 2 hour interval and then hold at 60° C. for 16 hours. After the mold was opened, the polymer sheet was cut using a diamond blade saw into 2 inch (5.1 centimeters) test squares.
The ΔOD/min, which represents the sensitivity of the photochromic compound's response to UV light, was measured over the first five (5) seconds of UV exposure, then expressed on a per minute basis. The saturation optical density (ΔOD@ Saturation) was taken under identical conditions as the ΔOD/min, except UV exposure was continued for 15 minutes. The lambda max (Vis) is the wavelength in nanometers (nm) in the visible spectrum at which the maximum absorption of the activated (colored) form of the photochromic compound in a test square occurs. The lambda max (Vis) wavelength was determined by testing the photochromic test square polymerizates of Part A in a Varian Cary 3 UV-Visible spectrophotometer. The Bleach Rate (T 1/2) is the time interval in seconds for the absorbance of the activated form of the photochromic compound in the test squares to reach one half the highest absorbance at room temperature (72° F., 22.2° C.) after removal of the source of activating light.

[2] = photochromic response of test squares on an optical bench (sensitivity, saturation, bleach rate); details: for ΔOD @ Saturation: UV exposure continued for 15 minutes; for ΔOD @ Saturation / Sensitivity ΔOD/min: 72° F. (22.2° C.); for Sensitivity ΔOD/min: first five (5) seconds of UV exposure, expressed per minute; for Bleach Rate T 1/2: time to one half the highest absorbance at room temperature (72° F., 22.2° C.) after removal of activating light
Procedure: as §1
The photochromic test squares prepared in Part A were tested for photochromic response on an optical bench. Prior to testing on the optical bench, the photochromic test squares were exposed to 365 nanometer ultraviolet light for about 15 minutes to activate the photochromic compounds and then placed in a 76° C. oven for about 15 minutes to bleach or inactivate the photochromic compounds. The test squares were then cooled to room temperature, exposed to fluorescent room lighting for at least 2 hours and then kept covered for at least 2 hours prior to testing on an optical bench maintained at 72° F. (22.2° C.). The bench was fitted with a 150 watt Xenon arc lamp, a remote controlled shutter, a copper sulfate bath acting as a heat sink for the arc lamp, a Schott WG-320 nm cut-off filter which removes short wavelength radiation; neutral density filter(s) and a sample holder in which the square to be tested was inserted. The power output of the optical bench, i.e., the dosage of light that the sample lens would be exposed to, was calibrated with a photochromic test square used as a reference standard. […] The UV-A detector was placed into the sample holder and the light output was measured. Adjustments to the power output were made by increasing or decreasing the lamp wattage or by adding or removing neutral density filters in the light path.
A monitoring, collimated beam of light from a tungsten lamp was passed through the square at a small angle (approximately 30°) normal to the square. After passing through the square, the light from the tungsten lamp was directed to a detector through Spectral Energy Corp. GM-200 monochromator set at the previously determined visible lambda max of the photochromic compound being measured. The output signals from the detector were processed by a radiometer.
Change in optical density (ΔOD) was determined by inserting a test square in the bleached state into the sample holder, adjusting the transmittance scale to 100%, opening the shutter from the Xenon lamp to provide ultraviolet radiation to change the test square from the bleached state to an activated (i.e., darkened) state, measuring the transmittance in the activated state, and calculating the change in optical density according to the formula: ΔOD=log(100/% Ta), where % Ta is the percent transmittance in the activated state and the logarithm is to the base 10.
The ΔOD/min, which represents the sensitivity of the photochromic compound's response to UV light, was measured over the first five (5) seconds of UV exposure, then expressed on a per minute basis. The saturation optical density (ΔOD@ Saturation) was taken under identical conditions as the ΔOD/min, except UV exposure was continued for 15 minutes. […]

[3] = lambda max (Vis) of compound in solution, UV/Visible spectrophotometer; details: solution in diethylene glycol dimethyl ether, approximately 0.5 milligram per milliliter
Procedure: The compound of Example 13 identified as 13A and the compound of Example 14 were dissolved in diethylene glycol dimethyl ether. The concentration of the resulting solution was approximately 0.5 milligram per milliliter. Each solution was tested in a UV/Visible Spectrophotometer to determine the lambda max (Vis).

lambda max (Vis) [1]	ΔOD @ Saturation [2]	Sensitivity ΔOD/min [2]	Bleach Rate T 1/2 [2]	lambda max (Vis) [3]	SMILES
468 nanometers	0.38	0.44 ΔOD/min	0.7 min		CCOC(=O)CCn1c(=O)oc2c(c3c(c4ccccc42)OC(c2ccccc2)(c2ccccc2)C=C3)c1=O [Example 10, 3-(2-ethoxycarbonylethyl)-7,7-diphenyl-2,4-dioxo-2,3,4,7-tetrahydro[1,3]oxazino[5',6':3,4]naphtho[1,2-b]pyran]
471 nanometers	0.41	0.46 ΔOD/min	0.883 min		CCCCCCn1c(=O)oc2c(c3c(c4ccccc42)OC(c2ccccc2)(c2ccccc2)C=C3)c1=O [Example 11, 3-hexyl-7,7-diphenyl-2,4-dioxo-2,3,4,7-tetrahydro[1,3]oxazino[5',6':3,4]naphtho[1,2-b]pyran]
				471 nanometers	O=C1OC(c2ccccc2)(c2ccccc2)Nc2c1c1c(c3ccccc23)OC(c2ccccc2)(c2ccccc2)C=C1 [Example 13A, 2,2,7,7-tetraphenyl-4-oxo-2,3,4,7-tetrahydro-1H-[1,3]oxazino[5',4':3,4]naphtho[1,2-b]pyran]
467 nanometers	0.32	0.26 ΔOD/min	2.33 min		C=C(C)C(=O)OCCn1c(=O)oc2c(c3c(c4ccccc42)OC(c2ccccc2)(c2ccccc2)C=C3)c1=O [Example 12, 3-(2-methacryloyloxyethyl)-7,7-diphenyl-2,4-dioxo-2,3,4,7-tetrahydro[1,3]oxazino[5',6':3,4]naphtho[1,2-b]pyran]
				460 nanometers	CC1(C)Cc2c(c3c(c4ccccc24)OC(c2ccccc2)(c2ccccc2)C=C3)C(=O)O1 [Example 14]

The next lines start with the compound.

SMILES	lambda max (Vis) [1]	ΔOD @ Saturation [2]	Sensitivity ΔOD/min [2]	Bleach Rate T 1/2 [2]	lambda max (Vis) [3]
Cn1c(=O)oc2c(c3c(c4ccccc42)OC(c2ccccc2)(c2ccccc2)C=C3)c1=O [Example 9, 3-methyl-7,7-diphenyl-2,4-dioxo-2,3,4,7-tetrahydro[1,3]oxazino[5',6':3,4]naphtho[1,2-b]pyran]	469 nanometers	0.40	0.41 ΔOD/min	0.85 min	
O=C1OC(c2ccccc2)Oc2c1c1c(c3ccccc23)OC(c2ccccc2)(c2ccccc2)C=C1 (centres unmarked) [Example 7, 2,7,7-triphenyl-4-oxo-4H-7H-[1,3]dioxino[5',4':3,4]naphtho[1,2-b]pyran]	476 nanometers	1.46	0.60 ΔOD/min	4.13 min	
CCCCCC1OC(=O)c2c3c(c4ccccc4c2O1)OC(c1ccccc1)(c1ccc(OC)cc1)C=C3 (centres unmarked) [Example 3, 7-(4-methoxyphenyl)-7-phenyl-2-pentyl-4-oxo-4H-7H-[1,3]dioxino[5',4':3,4]naphtho[1,2-b]pyran]	496 nanometers	1.28	0.75 ΔOD/min	1.95 min	
O=C1OCOc2c1c1c(c3ccccc23)OC(c2ccccc2)(c2ccccc2)C=C1 [Example 1, 7,7-diphenyl-4-oxo-4H-7H-[1,3]dioxino[5'4':3,4]naphtho[1,2-b]pyran]	472 nanometers	1.89	0.76 ΔOD/min	3.67 min	
CCC1OC(=O)c2c3c(c4ccccc4c2O1)OC(c1ccccc1)(c1ccccc1)C=C3 (centres unmarked) [Example 4, 7,7-diphenyl-2-ethyl-4-oxo-4H-7H-[1,3]dioxino[5',4':3,4]naphtho[1,2-b]pyran]	474 nanometers	1.71	0.67 ΔOD/min	4.13 min	
CC(c1ccccc1)C1OC(=O)c2c3c(c4ccccc4c2O1)OC(c1ccccc1)(c1ccccc1)C=C3 (centres unmarked) [Example 8, 7,7-diphenyl-2-(1-phenylethyl)-4-oxo-4H-7H-[1,3]dioxino[5',4':3,4]naphtho[1,2-b]pyran]	475 nanometers	1.58	0.63 ΔOD/min	4.18 min	
COc1ccc(C2(c3ccc(OC)cc3)C=Cc3c4c(c5ccccc5c3O2)OCOC4=O)cc1 [Example 2, 7,7-di(4-methoxyphenyl)-4-oxo-4H-7H-[1,3]dioxino[5',4':3,4]naphtho[1,2-b]pyran]	510 nanometers	0.67	0.74 ΔOD/min	0.85 min	
CC(C)CC1OC(=O)c2c3c(c4ccccc4c2O1)OC(c1ccccc1)(c1ccccc1)C=C3 (centres unmarked) [Example 6, 7,7-diphenyl-2-(2-methylpropyl)-4-oxo-4H-7H-[1,3]dioxino[5',4':3,4]naphtho[1,2-b]pyran]	475 nanometers	1.72	0.64 ΔOD/min	4 min	
CCCCCC1OC(=O)c2c3c(c4ccccc4c2O1)OC(c1ccccc1)(c1ccccc1)C=C3 (centres unmarked) [Example 5, 7,7-diphenyl-2-pentyl-4-oxo-4H-7H-[1,3]dioxino[5',4':3,4]naphtho[1,2-b]pyran]	478 nanometers	1.74	0.67 ΔOD/min	4.23 min	
